Assay results reported in ChEMBL document CHEMBL4507301 (2021).

Key:
[1] = target: Cyclin-dependent kinase-like 2 (Homo sapiens) (UniProt Q92772); settings: Compound concentration 1000.0 nM
[2] = target: Insulin receptor (Homo sapiens) (UniProt P06213); settings: Compound concentration 1000.0 nM
[3] = target: Cyclin-G-associated kinase (Homo sapiens) (UniProt O14976); settings: Compound concentration 1000.0 nM
[4] = target: 5-hydroxytryptamine receptor 6 (Homo sapiens) (UniProt P50406); settings: Compound concentration 10.0 uM
[5] = target: Receptor-type tyrosine-protein kinase FLT3 (Homo sapiens) (UniProt P36888); settings: Compound concentration 1000.0 nM
[6] = target: 5-hydroxytryptamine receptor 2C (Homo sapiens) (UniProt P28335); settings: Compound concentration 10.0 uM
[7] = target: Calcium/calmodulin-dependent protein kinase type II subunit alpha (Homo sapiens) (UniProt Q9UQM7); settings: Compound concentration 1000.0 nM
[8] = target: Tyrosine-protein kinase receptor Tie-1 (Homo sapiens) (UniProt P35590); settings: Compound concentration 1000.0 nM
[9] = target: Ephrin type-A receptor 4 (Homo sapiens) (UniProt P54764); settings: Compound concentration 1000.0 nM
[10] = target: Ribosomal protein S6 kinase alpha-5 (Homo sapiens) (UniProt O75582); settings: Compound concentration 1000.0 nM
[11] = target: Tyrosine-protein kinase Blk (Homo sapiens) (UniProt P51451); settings: Compound concentration 1000.0 nM
[12] = target: Protein kinase C epsilon type (Homo sapiens) (UniProt Q02156); settings: Compound concentration 1000.0 nM
[13] = target: Tyrosine-protein kinase Yes (Homo sapiens) (UniProt P07947); settings: Compound concentration 1000.0 nM
[14] = target: LIM domain kinase 2 (Homo sapiens) (UniProt P53671); settings: Compound concentration 1000.0 nM
LIM domain kinase 2 (Homo sapiens), sequence (P53671 whole entry, looked up, the tested form may be a part): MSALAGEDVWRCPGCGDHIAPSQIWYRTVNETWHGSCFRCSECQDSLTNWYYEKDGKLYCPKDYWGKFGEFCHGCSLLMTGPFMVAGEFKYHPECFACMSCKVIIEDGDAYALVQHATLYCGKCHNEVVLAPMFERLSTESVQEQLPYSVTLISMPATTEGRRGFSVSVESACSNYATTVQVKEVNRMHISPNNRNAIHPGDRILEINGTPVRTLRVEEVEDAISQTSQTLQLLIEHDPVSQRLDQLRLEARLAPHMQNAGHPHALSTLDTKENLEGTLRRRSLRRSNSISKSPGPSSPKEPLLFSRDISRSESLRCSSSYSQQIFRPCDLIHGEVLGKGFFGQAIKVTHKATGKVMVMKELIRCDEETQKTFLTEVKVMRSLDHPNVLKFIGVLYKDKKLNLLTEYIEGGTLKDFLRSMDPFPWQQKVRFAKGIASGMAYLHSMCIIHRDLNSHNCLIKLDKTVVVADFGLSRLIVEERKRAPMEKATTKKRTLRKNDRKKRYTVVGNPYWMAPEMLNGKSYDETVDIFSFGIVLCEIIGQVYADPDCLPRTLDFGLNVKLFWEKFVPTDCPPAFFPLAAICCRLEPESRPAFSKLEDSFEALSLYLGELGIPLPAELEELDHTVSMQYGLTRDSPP

[15] = target: Macrophage colony-stimulating factor 1 receptor (Homo sapiens) (UniProt P07333); settings: Compound concentration 1000.0 nM
[16] = target: Serine/threonine-protein kinase OSR1 (Homo sapiens) (UniProt O95747); settings: Compound concentration 1000.0 nM
[17] = target: Receptor-type tyrosine-protein kinase FLT3 (Homo sapiens) (UniProt P36888); settings: Compound concentration 1000.0 nM; remark: listed apart in the source
[18] = target: Serine/threonine-protein kinase Chk1 (Homo sapiens) (UniProt O14757); settings: Compound concentration 1000.0 nM
[19] = target: Tyrosine-protein kinase ITK/TSK (Homo sapiens) (UniProt Q08881); settings: Compound concentration 1000.0 nM
[20] = target: Calcium/calmodulin-dependent protein kinase type II subunit gamma (Homo sapiens) (UniProt Q13555); settings: Compound concentration 1000.0 nM
[21] = target: Ephrin type-B receptor 4 (Homo sapiens) (UniProt P54760); settings: Compound concentration 1000.0 nM
[22] = target: Homeodomain-interacting protein kinase 2 (Homo sapiens) (UniProt Q9H2X6); settings: Compound concentration 1000.0 nM
Homeodomain-interacting protein kinase 2 (Homo sapiens), sequence (Q9H2X6 whole entry, looked up): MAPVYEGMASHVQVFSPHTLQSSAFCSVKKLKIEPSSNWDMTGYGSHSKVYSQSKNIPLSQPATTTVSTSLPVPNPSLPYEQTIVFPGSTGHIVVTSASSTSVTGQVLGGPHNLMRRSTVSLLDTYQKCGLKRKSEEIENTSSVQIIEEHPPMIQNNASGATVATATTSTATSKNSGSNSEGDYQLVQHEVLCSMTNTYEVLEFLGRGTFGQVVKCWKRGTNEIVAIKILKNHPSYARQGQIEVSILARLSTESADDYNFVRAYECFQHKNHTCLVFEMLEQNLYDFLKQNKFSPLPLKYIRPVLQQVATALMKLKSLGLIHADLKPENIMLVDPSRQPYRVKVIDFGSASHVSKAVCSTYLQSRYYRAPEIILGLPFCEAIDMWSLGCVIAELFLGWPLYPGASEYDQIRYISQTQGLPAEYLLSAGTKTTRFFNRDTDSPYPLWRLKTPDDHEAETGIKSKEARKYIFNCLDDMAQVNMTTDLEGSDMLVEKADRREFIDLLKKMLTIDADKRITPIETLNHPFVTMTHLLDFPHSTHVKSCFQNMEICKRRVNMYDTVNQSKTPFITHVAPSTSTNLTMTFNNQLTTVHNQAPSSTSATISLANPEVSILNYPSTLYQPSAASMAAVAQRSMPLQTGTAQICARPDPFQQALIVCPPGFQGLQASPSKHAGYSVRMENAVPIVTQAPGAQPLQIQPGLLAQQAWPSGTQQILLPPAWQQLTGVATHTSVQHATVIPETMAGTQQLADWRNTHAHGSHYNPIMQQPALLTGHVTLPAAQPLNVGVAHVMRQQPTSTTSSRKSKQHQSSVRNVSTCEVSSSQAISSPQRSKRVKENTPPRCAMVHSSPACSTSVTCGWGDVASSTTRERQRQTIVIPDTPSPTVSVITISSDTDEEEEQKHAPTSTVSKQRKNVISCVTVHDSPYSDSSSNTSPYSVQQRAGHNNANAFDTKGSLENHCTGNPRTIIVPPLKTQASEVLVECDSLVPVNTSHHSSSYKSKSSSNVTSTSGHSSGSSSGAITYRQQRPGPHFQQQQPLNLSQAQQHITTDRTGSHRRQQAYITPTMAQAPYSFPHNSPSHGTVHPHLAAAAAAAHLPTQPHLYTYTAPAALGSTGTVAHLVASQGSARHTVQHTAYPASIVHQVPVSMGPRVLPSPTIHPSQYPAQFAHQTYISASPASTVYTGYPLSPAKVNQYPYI

[23] = target: STE20/SPS1-related proline-alanine-rich protein kinase (Homo sapiens) (UniProt Q9UEW8); settings: Compound concentration 1000.0 nM
[24] = target: Cyclin-dependent kinase 17 (Homo sapiens) (UniProt Q00537); settings: Compound concentration 1000.0 nM
[25] = test system: Receptor-type tyrosine-protein kinase FLT3 (Homo sapiens), P36888 [R834Q]; settings: Compound concentration 1000.0 nM
[26] = target: Tyrosine-protein kinase Fgr (Homo sapiens) (UniProt P09769); settings: Compound concentration 1000.0 nM
Tyrosine-protein kinase Fgr (Homo sapiens), sequence (P09769 2-529 limits assumed): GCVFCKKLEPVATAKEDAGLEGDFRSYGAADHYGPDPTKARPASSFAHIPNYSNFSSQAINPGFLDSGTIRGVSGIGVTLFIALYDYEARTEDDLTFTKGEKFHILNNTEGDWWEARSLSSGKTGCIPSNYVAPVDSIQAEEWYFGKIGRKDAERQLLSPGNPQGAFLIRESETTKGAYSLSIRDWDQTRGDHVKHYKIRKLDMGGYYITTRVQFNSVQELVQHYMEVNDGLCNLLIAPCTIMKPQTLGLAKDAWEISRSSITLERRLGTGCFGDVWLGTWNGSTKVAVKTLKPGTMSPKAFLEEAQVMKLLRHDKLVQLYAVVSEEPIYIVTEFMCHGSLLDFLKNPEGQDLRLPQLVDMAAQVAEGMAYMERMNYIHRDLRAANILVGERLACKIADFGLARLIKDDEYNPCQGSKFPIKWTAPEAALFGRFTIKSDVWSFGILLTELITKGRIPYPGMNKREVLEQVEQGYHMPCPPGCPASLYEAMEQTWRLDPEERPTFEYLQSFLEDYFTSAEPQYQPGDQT

[27] = target: Mast/stem cell growth factor receptor Kit (Homo sapiens) (UniProt P10721); settings: Compound concentration 1000.0 nM
Mast/stem cell growth factor receptor Kit (Homo sapiens), sequence (P10721 whole entry): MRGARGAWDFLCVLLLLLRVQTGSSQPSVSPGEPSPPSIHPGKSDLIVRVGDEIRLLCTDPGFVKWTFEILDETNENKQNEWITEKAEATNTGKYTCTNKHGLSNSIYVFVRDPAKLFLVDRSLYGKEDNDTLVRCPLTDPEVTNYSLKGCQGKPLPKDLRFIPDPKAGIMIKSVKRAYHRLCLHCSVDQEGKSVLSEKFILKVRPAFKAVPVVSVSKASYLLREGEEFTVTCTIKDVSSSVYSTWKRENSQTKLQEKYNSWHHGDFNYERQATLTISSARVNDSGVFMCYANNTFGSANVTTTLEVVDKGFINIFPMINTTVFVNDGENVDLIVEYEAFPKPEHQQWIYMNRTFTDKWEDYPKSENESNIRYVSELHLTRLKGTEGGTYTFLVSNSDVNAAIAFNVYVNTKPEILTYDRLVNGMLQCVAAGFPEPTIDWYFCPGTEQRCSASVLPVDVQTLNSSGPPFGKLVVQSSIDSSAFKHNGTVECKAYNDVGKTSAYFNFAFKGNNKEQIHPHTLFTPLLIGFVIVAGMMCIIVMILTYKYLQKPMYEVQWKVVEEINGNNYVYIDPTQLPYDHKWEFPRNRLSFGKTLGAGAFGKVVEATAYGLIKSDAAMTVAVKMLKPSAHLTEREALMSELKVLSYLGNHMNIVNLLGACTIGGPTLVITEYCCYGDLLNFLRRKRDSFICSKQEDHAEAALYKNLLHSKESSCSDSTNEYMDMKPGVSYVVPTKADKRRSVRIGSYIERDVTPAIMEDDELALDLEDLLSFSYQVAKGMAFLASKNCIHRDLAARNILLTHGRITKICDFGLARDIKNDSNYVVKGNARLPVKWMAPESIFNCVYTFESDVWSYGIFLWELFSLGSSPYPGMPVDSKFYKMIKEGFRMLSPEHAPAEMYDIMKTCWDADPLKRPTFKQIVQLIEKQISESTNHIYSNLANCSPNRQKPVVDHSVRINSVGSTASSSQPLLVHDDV

[28] = target: Serine/threonine-protein kinase TNNI3K (Homo sapiens) (UniProt Q59H18); settings: Compound concentration 1000.0 nM
[29] = target: Serine/threonine-protein kinase B-raf (Homo sapiens) (UniProt P15056); settings: Compound concentration 1000.0 nM
[30] = target: Hormonally up-regulated neu tumor-associated kinase (Homo sapiens) (UniProt P57058); settings: Compound concentration 1000.0 nM
[31] = target: Alpha-1D adrenergic receptor (Homo sapiens) (UniProt P25100); settings: Compound concentration 10.0 uM
[32] = target: Ephrin type-A receptor 5 (Homo sapiens) (UniProt P54756); settings: Compound concentration 1000.0 nM
[33] = target: Uncharacterized serine/threonine-protein kinase SBK3 (Homo sapiens) (UniProt P0C264); settings: Compound concentration 1000.0 nM
Uncharacterized serine/threonine-protein kinase SBK3 (Homo sapiens), sequence (P0C264 whole entry): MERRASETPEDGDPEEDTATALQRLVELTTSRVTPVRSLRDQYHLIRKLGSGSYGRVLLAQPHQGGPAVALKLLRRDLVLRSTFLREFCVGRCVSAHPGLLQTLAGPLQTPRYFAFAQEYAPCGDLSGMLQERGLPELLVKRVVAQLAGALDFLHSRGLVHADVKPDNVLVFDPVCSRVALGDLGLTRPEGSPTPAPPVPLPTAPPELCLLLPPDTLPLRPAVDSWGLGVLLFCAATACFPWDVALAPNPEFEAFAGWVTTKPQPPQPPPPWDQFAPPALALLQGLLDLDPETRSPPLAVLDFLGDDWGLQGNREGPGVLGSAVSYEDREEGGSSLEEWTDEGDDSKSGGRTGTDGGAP

[34] = target: Homeodomain-interacting protein kinase 4 (Homo sapiens) (UniProt Q8NE63); settings: Compound concentration 1000.0 nM
[35] = target: Ephrin type-A receptor 7 (Homo sapiens) (UniProt Q15375); settings: Compound concentration 1000.0 nM
[36] = test system: Receptor-type tyrosine-protein kinase FLT3 (Homo sapiens), P36888 [UNDEFINED MUTATION]; settings: Compound concentration 1000.0 nM
[37] = target: Serine/threonine-protein kinase RIO1 (Homo sapiens) (UniProt Q9BRS2); settings: Compound concentration 1000.0 nM
[38] = target: Serine/threonine-protein kinase 36 (Homo sapiens) (UniProt Q9NRP7); settings: Compound concentration 1000.0 nM
[39] = target: Serine/threonine-protein kinase DCLK3 (Homo sapiens) (UniProt Q9C098); settings: Compound concentration 1000.0 nM
[40] = target: Serine/threonine-protein kinase PAK 4 (Homo sapiens) (UniProt O96013); settings: Compound concentration 1000.0 nM
[41] = target: Ephrin type-A receptor 8 (Homo sapiens) (UniProt P29322); settings: Compound concentration 1000.0 nM
Ephrin type-A receptor 8 (Homo sapiens), sequence (P29322 whole entry, canonical isoform): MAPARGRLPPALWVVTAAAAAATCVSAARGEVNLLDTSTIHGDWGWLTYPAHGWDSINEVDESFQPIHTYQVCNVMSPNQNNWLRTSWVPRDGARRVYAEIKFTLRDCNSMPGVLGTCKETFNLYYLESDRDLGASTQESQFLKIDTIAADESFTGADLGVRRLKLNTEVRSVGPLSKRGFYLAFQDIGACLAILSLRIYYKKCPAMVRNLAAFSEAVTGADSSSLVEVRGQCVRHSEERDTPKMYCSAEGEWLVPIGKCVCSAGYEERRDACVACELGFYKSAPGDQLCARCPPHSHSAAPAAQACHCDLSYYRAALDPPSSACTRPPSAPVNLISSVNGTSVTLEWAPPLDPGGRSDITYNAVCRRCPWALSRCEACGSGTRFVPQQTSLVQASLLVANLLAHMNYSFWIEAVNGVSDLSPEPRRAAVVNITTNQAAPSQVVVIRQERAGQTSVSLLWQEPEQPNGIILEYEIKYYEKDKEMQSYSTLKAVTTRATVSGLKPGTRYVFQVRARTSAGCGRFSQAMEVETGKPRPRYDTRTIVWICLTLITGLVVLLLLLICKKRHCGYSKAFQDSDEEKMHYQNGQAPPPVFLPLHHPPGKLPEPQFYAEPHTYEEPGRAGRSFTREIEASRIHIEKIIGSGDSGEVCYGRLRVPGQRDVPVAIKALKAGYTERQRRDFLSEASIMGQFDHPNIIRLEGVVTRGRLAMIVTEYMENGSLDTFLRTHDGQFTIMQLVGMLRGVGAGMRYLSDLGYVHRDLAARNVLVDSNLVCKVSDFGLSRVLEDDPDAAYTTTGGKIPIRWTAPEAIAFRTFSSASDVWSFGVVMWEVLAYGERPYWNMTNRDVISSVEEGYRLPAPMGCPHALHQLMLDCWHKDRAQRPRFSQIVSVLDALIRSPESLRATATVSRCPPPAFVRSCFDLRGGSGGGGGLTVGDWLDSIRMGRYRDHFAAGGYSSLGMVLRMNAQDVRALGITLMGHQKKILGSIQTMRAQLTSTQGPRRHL

[42] = target: Phosphatidylinositol 4,5-bisphosphate 3-kinase catalytic subunit beta isoform (Homo sapiens) (UniProt P42338); settings: Compound concentration 1000.0 nM
[43] = target: Histamine H2 receptor (Homo sapiens) (UniProt P25021); settings: Compound concentration 10.0 uM
Histamine H2 receptor (Homo sapiens), sequence (P25021 whole entry): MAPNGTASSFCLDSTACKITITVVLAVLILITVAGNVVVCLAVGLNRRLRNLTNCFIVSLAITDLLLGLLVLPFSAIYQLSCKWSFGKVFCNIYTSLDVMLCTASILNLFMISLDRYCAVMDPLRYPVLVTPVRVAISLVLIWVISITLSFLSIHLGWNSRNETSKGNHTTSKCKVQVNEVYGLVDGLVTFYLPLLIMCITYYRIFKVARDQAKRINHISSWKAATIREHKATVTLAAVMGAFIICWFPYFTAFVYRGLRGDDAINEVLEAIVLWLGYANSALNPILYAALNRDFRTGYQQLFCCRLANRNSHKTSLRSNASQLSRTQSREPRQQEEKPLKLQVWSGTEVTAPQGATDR

[44] = target: Serine/threonine-protein kinase Chk2 (Homo sapiens) (UniProt O96017); settings: Compound concentration 1000.0 nM
[45] = target: Rhodopsin kinase GRK7 (Homo sapiens) (UniProt Q8WTQ7); settings: Compound concentration 1000.0 nM

## C[C@H](c1cccc(C#N)c1)n1cc(Cl)cc(C(N)=O)c1=N [(R)-9s]
[1]
  residual activity: 100%
[2]
  residual activity: 97%
[3]
  residual activity: 100%
[4]
  inhibition: 6.03%
[5]
  residual activity: 90%
[6]
  inhibition: 9.56%
[7]
  residual activity: 100%
[8]
  residual activity: 100%
[9]
  residual activity: 65%
[10]
  residual activity: 92%
[11]
  residual activity: 78%
[12]
  residual activity: 87%
[13]
  residual activity: 88%
[14]
  residual activity: 100%
[15]
  residual activity: 100%
[16]
  residual activity: 81%
[17]
  residual activity: 95%
[18]
  residual activity: 100%
[19]
  residual activity: 90%
[20]
  residual activity: 100%
[21]
  residual activity: 89%
[22]
  residual activity: 100%
[23]
  residual activity: 100%
[24]
  residual activity: 91%
[25]
  residual activity: 100%
[26]
  residual activity: 80%
[27]
  residual activity: 87%
[28]
  residual activity: 92%
[29]
  residual activity: 100%
[30]
  residual activity: 89%
[31]
  inhibition: 93.3%
[32]
  residual activity: 96%
[33]
  residual activity: 95%
[34]
  residual activity: 100%
[35]
  residual activity: 98%
[36]
  residual activity: 82%
[37]
  residual activity: 100%
[38]
  residual activity: 75%
[39]
  residual activity: 99%
[40]
  residual activity: 100%
[41]
  residual activity: 95%
[42]
  residual activity: 94%
[43]
  inhibition: 10.8%
[44]
  residual activity: 100%
[45]
  residual activity: 85%

## C[C@@H](c1cccc(C#N)c1)n1cc(Cl)cc(C(N)=O)c1=N [(S)-9s]
[1]
  residual activity: 100%
[2]
  residual activity: 100%
[3]
  residual activity: 100%
[4]
  inhibition: 7.75%
[5]
  residual activity: 92%
[6]
  inhibition: 16.8%
[7]
  residual activity: 100%
[8]
  residual activity: 87%
[9]
  residual activity: 90%
[10]
  residual activity: 93%
[11]
  residual activity: 85%
[12]
  residual activity: 89%
[13]
  residual activity: 93%
[14]
  residual activity: 100%
[15]
  residual activity: 96%
[16]
  residual activity: 93%
[17]
  residual activity: 100%
[18]
  residual activity: 100%
[19]
  residual activity: 82%
[20]
  residual activity: 100%
[21]
  residual activity: 96%
[22]
  residual activity: 100%
[23]
  residual activity: 100%
[24]
  residual activity: 84%
[25]
  residual activity: 100%
[26]
  residual activity: 87%
[27]
  residual activity: 93%
[28]
  residual activity: 100%
[29]
  residual activity: 96%
[30]
  residual activity: 100%
[31]
  inhibition: 60.5%
[32]
  residual activity: 96%
[33]
  residual activity: 95%
[34]
  residual activity: 100%
[35]
  residual activity: 100%
[36]
  residual activity: 85%
[37]
  residual activity: 86%
[38]
  residual activity: 94%
[39]
  residual activity: 86%
[40]
  residual activity: 100%
[41]
  residual activity: 90%
[42]
  residual activity: 93%
[43]
  inhibition: 8.25%
[44]
  residual activity: 100%
[45]
  residual activity: 82%
